Values quoted from earlier work in article PMC9502836, “Zika Virus Inhibitors Based on a 1,3-Disubstituted 1H-Pyrazolo[3,4-d]pyrimidine-amine Scaffold” (Molecules, 2022).

Tests used:
Huh7 cells = test system: Huh7 cells; set-up: method as in PMID 34206327; settings: cited from earlier work
ZIKV = test system: ZIKV; set-up: method as in PMID 34206327; settings: Huh7 cells, cited from earlier work; for EC50: read-out: Titer Reduction Assay EC50
luciferase reporter ZIKV = settings: Huh7 cells, cited from earlier work

Row | SMILES | CC50 (Huh7 cells) [µM] | EC50 (ZIKV) [µM] | ZIKV Reporter Assay Viability (%) at 10 µM (Huh7 cells; 10 µM) [%] | ZIKV Reporter Assay Inhibition (%) at 10 µM (luciferase reporter ZIKV; 10 µM) [%] | EC50 (luciferase reporter ZIKV) [µM] | Titer Reduction Assay % at 8.5 µM (ZIKV; 8.5 µM) [%]
1 | O=[N+]([O-])c1ccc(Cn2ccc3c(NCc4cccc(Cl)c4)ncnc32)cc1 [Compound 1] | 20 | 5.2 |  |  |  | 
2 | Cc1cc(N)c2cc(NC(=O)Nc3ccc4nc(C)cc(N)c4c3)ccc2n1 [NSC 12155] | 23 | 7.34 | 70 | 68 | 2.18 | 72
